In brackets after ≈: the same amount, converted by molar mass. Like-named read-outs stand apart in the source and are kept apart here.
Experiments:
[1] = tested on: Zygomycete (Clinical Lab isolate, MDACC); assay: Extended mold testing, MIC (CLSI M38A); format: cell-based; settings: H3 final use-formulation, range 75 μg/mL to 0.07 μg/mL, 48 hr, read-out: MIC
Excerpt: To further determine the antifungal activity of the compounds in the new formulation systems we investigated the efficacy of the various agents against additional strains of mucor and Aspergillus (9/-16-9/20/2010) (The Rhizomucor was a clinical isolate from a patient isolate) and the Aspergillus fumigatus (ATCC strain 90906) used was a repeat from the previously described experiment. Again, the susceptibility tests were set-up using the standardized test method (CLSI M38A). The used drugs were provided in the described H3 final use-formulation that has been previously described. All drugs were diluted in RPMI-Mops medium (YeastOne, Sensititer Lot 151416SA, expiration date January 2011).
As before two different molds were tested with a standard read out at 48 hr: • Drug dilution range 75 μg/mL to 0.07 μg/mL. • Aspergillus fumigatus (ATCC strain 90906) Zygomycete (Clinical Lab isolate, MDACC)

in vivo = settings: both, Swiss Webster, mouse, plasma, iv, 5 mg/kg
Protocol: (§1) Swiss Webster mice were used for pharmacokinetic studies of ITZA and its analogs. The dilation of the vein was accomplished by warming up the mice using a heat lamp. […] Mice were allowed to recover and blood samples were obtained through cardiac puncture under general anesthesia with Isoflurane/oxygen by vaporizer at various time points. Plasma was obtained by centrifugation of blood sample at 3,200 rpm for 5 min. at 4° C. Plasma proteins were precipitated by adding acetonitrile (twice the volume of plasma). The mixture was vortexed for 30 seconds and centrifuged for 5 min. at 14,000 rpm. The supernatant was saved and was injected into the HPLC to determine the respective drug concentrations.
(§2) Unless specified, the analogous experiments were performed using POSA as an alternative to ITZA; Swiss Webster mice of both sexes with a body weight of 25-30 g were used for the in vivo pharmacology experiments (Harlan-Sprague-Dawley, Houston, Tex.). The animals were allowed a minimum of 7 days after arrival to accommodate to the new environment and allowed free access to commercial feed and tap water prior to and during the experimentation period. The animals were housed in an Association for the Assessment and Accreditation of Laboratory Animal Care International (AAALAC)-approved facility that meets the requirements of the USDA, NIH, and DHHS.
(§3) The ITZA dose of 5 mg/kg BW was determined to be a suitable test dose that could be administered to the mice as a slow (3-4 min) IV bolus injection without requiring sedation, but could be performed with only minimal physical restraint of the animals in a standard funnel-type cage.
(§4) The ITZA was formulated in the H3 solvent system described above as the preferred solvent to a stock concentration of 4-5 mg/mL and then diluted with NS (ratio 1:1) so the intended dose (5.0 mg/kg BW) could be injected in a tail vein in a total volume of approximately 100 μL. […] No sedative premedication was used for the mice in this experiment to avoid the possible induction of microsomal liver enzymes that could modify ITZA metabolism. Thus, the animals were unanesthetized, being only physically restrained during and immediately following the drug injection.
(§5) Blood samples (0.5-1.0 mL) were drawn through cardiac puncture into heparinized tubes at selected time points prior to the drug infusion (“blank”), and from 5 min to 1 hour after drug injection for determination of ITZA concentrations, and for 5 min to about 7 hrs in the POSA experiment. The mice were exposed to 2% -4% isoflurane for general anesthesia. Blood samples were obtained through cardiac puncture and immediately deposited in heparinized microcentrifuge tubes.

[2] = mouse, in vivo, 5 mg/kg
Protocol: as §1, §2, §3, §4, §5

[3] = tested on: Aspergillus fumigatus (Clinical Lab isolate); assay: Mold susceptibility test, MIC; format: cell-based; settings: tested range 75 μg/mL to 0.07 μg/mL, read out at 48 hrs
Protocol: Two hyaline molds were tested with a standard read out at 48 hrs:
Tested drug range: 75 μg/mL to 0.07 μg/mL
Briefly, susceptibility tests were set-up using a standardized methodology (CLSI […] standard). Drugs were diluted into RPMI-Mops medium (Yeast One Broth (Sensititer, product Y3462, Trek Diagnostic Systems, Cleveland, Ohio) Sensititer Lot number 151416SA-expiration date 2011-01). Two different strains of yeast were tested, the standardized evaluation/read out was performed at 24 hours after the start of each culture. The tests were repeated twice and all MIC (minimum inhibitory concentration) values are reported as an average of the three experiments.

[4] = Stability of ITZA/POSA in solvent vehicles (HPLC); format: physicochemical

CCC(C)n1ncn(-c2ccc(N3CCN(c4ccc(OCC5COC(Cn6cncn6)(c6ccc(Cl)cc6Cl)O5)cc4)CC3)cc2)c1=O (stereo not shown) [ITZA, itraconazole]
MIC [1]: 2.5 µg/mL (≈ 3.54 µM) | half-life (in vivo): ~30 min | tolerability of IV injection (in words) [2]: well accepted | MIC ([3]; Aspergillus fumigatus, 48 h, read-out: MIC): 0.6 µg/mL (≈ 0.85 µM) | MIC [3]: 0.3 µg/mL (≈ 0.425 µM) | Stability (% remaining) ([4]; 2-6 mg/mL in composite (prototype) solvent vehicles, more than three days or 72 hours at RT): more than 90% | Stability (%) ([4]; H3D, 4 mg/mL, 0 hr): 100% | Stability (%) ([4]; H3D, 4 mg/mL, 2 hr): 102% | Stability (%) ([4]; H3D, 4 mg/mL, 4 hr): 101% | Stability (%) ([4]; H3D, 4 mg/mL, 8 hr): 99% | Stability (%) ([4]; H3D, 4 mg/mL, 24 hr): 97% | stability of ITZA ([4]; H3D, day 0): 100% | stability of ITZA ([4]; H3D, day 1): 94% | stability of ITZA ([4]; H3D, day 2): 95% | stability of ITZA ([4]; H3D, day 3): 93% | stability of ITZA ([4]; H3D, day 4): 94% | stability of ITZA ([4]; H3D, day 5): 98% | stability of ITZA ([4]; H3D/5% dex., day 0): 100% | stability of ITZA ([4]; H3D/5% dex., day 1): 100% | stability of ITZA ([4]; H3D/5% dex., day 2): 103% | stability of ITZA ([4]; H3D/5% dex., day 4): 99% | stability of ITZA ([4]; H3D/5% dex., day 5): 93% | stability of ITZA ([4]; H3D/10% Dex., day 0): 100% | stability of ITZA ([4]; H3D/10% Dex., day 1): 98% | stability of ITZA ([4]; H3D/10% Dex., day 2): 98% | stability of ITZA ([4]; H3D/10% Dex., day 3): 102% | stability of ITZA ([4]; H3D/10% Dex., day 4): 99% | stability of ITZA ([4]; H3D/10% Dex., day 5): 105% | stability of ITZA ([4]; H3D/sal., day 0): 100% | stability of ITZA ([4]; H3D/sal., day 1): 107% | stability of ITZA ([4]; H3D/sal., day 2): 107% | stability of ITZA ([4]; H3D/sal., day 3): 110% | stability of ITZA ([4]; H3D/sal., day 5): 90% | stability of ITZA ([4]; H3G, day 0): 100% | stability of ITZA ([4]; H3G, day 1): 103% | stability of ITZA ([4]; H3G, day 2): 100% | stability of ITZA ([4]; H3G, day 3): 89% | stability of ITZA ([4]; H3G, day 4): 103% | stability of ITZA ([4]; H3G, day 5): 106% | stability of ITZA ([4]; H3G/5% Dex., day 0): 100% | stability of ITZA ([4]; H3G/5% Dex., day 1): 102% | stability of ITZA ([4]; H3G/5% Dex., day 2): 109% | stability of ITZA ([4]; H3G/5% Dex., day 3): 94% | stability of ITZA ([4]; H3G/5% Dex., day 4): 99% | stability of ITZA ([4]; H3G/5% Dex., day 5): 42% | stability of ITZA ([4]; H3G/10% dex., day 0): 100% | stability of ITZA ([4]; H3G/10% dex., day 2): 102% | stability of ITZA ([4]; H3G/10% dex., day 3): 98% | stability of ITZA ([4]; H3G/10% dex., day 4): 107% | stability of ITZA ([4]; H3G/10% dex., day 5): 31% | stability of ITZA ([4]; H3G/sal., day 0): 100% | stability of ITZA ([4]; H3G/sal., day 1): 95% | stability of ITZA ([4]; H3G/sal., day 2): 94% | stability of ITZA ([4]; H3G/sal., day 3): 80% | stability of ITZA ([4]; H3G/sal., day 4): 70% | stability of ITZA ([4]; H3G/sal., day 5): 38% | Stability (%) ([4]; Solvent H3G, 0 hr): 100% | Stability (%) ([4]; Solvent H3G, 2 hr): 108% | Stability (%) ([4]; Solvent H3G, 4 hr): 104% | Stability (%) ([4]; Solvent H3G, 6 hr): 101% | Stability (%) ([4]; Solvent H3G, 8 hr): 98% | Stability (%) ([4]; Solvent H3G, 24 hr): 103% | Stability (%) ([4]; parent solvent H3, approximately 4 mg/mL, room temperature, 14 (2 w)): 83% | Stability (%) ([4]; parent solvent H3, approximately 4 mg/mL, room temperature, 21 (3 w)): 79% | Stability (%) ([4]; parent solvent H3, approximately 4 mg/mL, room temperature, 28 (4 w)): 75% | Stability (%) ([4]; parent solvent H3, approximately 4 mg/mL, room temperature, 35 (5 w)): 77% | Stability (%) ([4]; parent solvent H3, approximately 4 mg/mL, room temperature, 49 (7 w)): 79% | Stability (%) ([4]; parent solvent H3, approximately 4 mg/mL, room temperature, 63 (9 w)): 75% | Stability (%) ([4]; parent solvent H3, approximately 4 mg/mL, room temperature, 24 hrs): 99% | Stability (%) ([4]; parent solvent H3, approximately 4 mg/mL, room temperature, 72 hrs): 95% | Stability (%) ([4]; parent solvent H3, approximately 4 mg/mL, room temperature, 96 hrs): 88% | Stability (%) ([4]; parent solvent H3, approximately 4 mg/mL, room temperature, 11 days): 77% | Stability (%) ([4]; parent solvent H3, approximately 4 mg/mL, room temperature, time 0): 100% | Stability (%) ([4]; solvent H3, approximately 4 mg/mL, 40° C., 3 hr): 104% | Stability (%) ([4]; solvent H3, approximately 4 mg/mL, 40° C., 6 hr): 98% | Stability (%) ([4]; solvent H3, approximately 4 mg/mL, 40° C., 24 hr): 92% | Stability (%) ([4]; solvent H3, approximately 4 mg/mL, 40° C., 30 hr): 89% | Stability (%) ([4]; solvent H3, approximately 4 mg/mL, 40° C., 48 hr): 84% | Stability (%) ([4]; solvent H3, approximately 4 mg/mL, 40° C., 54 hr): 79% | Stability (%) ([4]; solvent H3, approximately 4 mg/mL, 40° C., 78 hr): 80% | Stability (%) ([4]; solvent H3, approximately 4 mg/mL, 40° C., 4 days): 78% | Stability (%) ([4]; solvent H3, approximately 4 mg/mL, 40° C., 7 days): 70% | Stability (%) ([4]; solvent H3, approximately 4 mg/mL, 40° C., 8 days): 70% | Stability (%) ([4]; solvent H3, approximately 4 mg/mL, 40° C., 9 days): 58% | Stability (%) ([4]; solvent H3, approximately 4 mg/mL, 40° C., 14 days): 56% | Stability (%) ([4]; solvent H3, approximately 4 mg/mL, 40° C., 16 days): 55% | Stability (%) ([4]; solvent H3, approximately 4 mg/mL, 40° C., 18 days): 54% | Stability (%) ([4]; solvent H3, approximately 4 mg/mL, 40° C., 21 days): 45% | Stability (%) ([4]; solvent H3, approximately 4 mg/mL, 40° C., 25 days): 37% | Stability (%) ([4]; solvent H3, approximately 4 mg/mL, 40° C., 28 days): 30% | Stability (%) ([4]; solvent H3, approximately 4 mg/mL, 40° C., 32 days): 24% | Stability (%) ([4]; solvent H3/normal saline (1:1), approximately 2.0 mg/mL, RT, 0 hrs): 100% | Stability (%) ([4]; solvent H3/normal saline (1:1), approximately 2.0 mg/mL, RT, 2 hrs): 97% | Stability (%) ([4]; solvent H3/normal saline (1:1), approximately 2.0 mg/mL, RT, 4 hrs): 97% | Stability (%) ([4]; solvent H3/normal saline (1:1), approximately 2.0 mg/mL, RT, 8 hrs): 102% | Stability (%) ([4]; solvent H3/normal saline (1:1), approximately 2.0 mg/mL, RT, 14 hrs): 109% | Stability (%) ([4]; solvent H3/normal saline (1:1), approximately 2.0 mg/mL, RT, 24 hrs): 93%
